Assay results as given in patent US9028845B2, “Chimeric immunomodulatory compounds and methods of using the same-IV” (Dynavax Technologies Corporation, priority 2001, dated 2015).

Columns and labels:
CD19+ B cells = assay: Human B cell proliferation assay (3H-thymidine incorporation); details: for cpm1 / cpm2 / cpm3 / mean cpm / mean of both: B cells, Experiment B; for mean of both: mean of donors 121 and 194
human PBMCs = assay: Human PBMC cytokine response assay (IFN-γ and IFN-α in cell-free medium by ELISA), with or without cPLGA; type: cell-based; details: for IFN-γ (pg/ml) 28065: donor 28065 (high background), 1000 = outside assay limits; for IFN-γ (pg/ml) 28065 / IFN-α (pg/ml) 28065 / IFN-α (pg/ml) 28066 / IFN-γ (pg/ml) 28066 / IFN-α (pg/ml) 28067 / IFN-γ (pg/ml) 28067 / IFN-α (pg/ml) 28068 / IFN-γ (pg/ml) 28068 / IFN-α (pg/ml) mean / IFN-γ (pg/ml) mean: 20 ug/ml, + PLGA = premixed with 100 μg/ml cPLGA; for IFN-α (pg/ml) 28065: donor 28065; for IFN-α (pg/ml) 28066 / IFN-γ (pg/ml) 28066: donor 28066; for IFN-α (pg/ml) 28067 / IFN-γ (pg/ml) 28067: donor 28067; for IFN-α (pg/ml) 28068 / IFN-γ (pg/ml) 28068: donor 28068; for IFN-α (pg/ml) mean / IFN-γ (pg/ml) mean: mean of donors 28065-28068;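 for IFN-α (pg/ml) mean: 20 µg/mL compound for 24 hours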;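 for IFN-γ (pg/ml) mean: 20 µg/mL compound for 24 hours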
[1] = Table 24, mean of donors 28234-28237

| Substance | cpm1 (CD19+ B cells; donor 121, 2 μg/ml) [cpm] | cpm2 (CD19+ B cells; donor 121, 2 μg/ml) [cpm] | cpm3 (CD19+ B cells; donor 121, 2 μg/ml) [cpm] | mean cpm (CD19+ B cells; donor 121 mean, 2 μg/ml) [cpm] | cpm1 (CD19+ B cells; donor 194, 2 μg/ml) [cpm] | cpm2 (CD19+ B cells; donor 194, 2 μg/ml) [cpm] | cpm3 (CD19+ B cells; donor 194, 2 μg/ml) [cpm] | mean cpm (CD19+ B cells; donor 194 mean, 2 μg/ml) [cpm] | mean of both (CD19+ B cells; 2 μg/ml) [cpm] | IFN-γ (pg/ml) 28065 (human PBMCs; 24 h) [pg/mL] | IFN-α (pg/ml) 28065 (human PBMCs; 24 h) [pg/mL] | IFN-α (pg/ml) 28066 (human PBMCs; 24 h) [pg/mL] | IFN-γ (pg/ml) 28066 (human PBMCs; 24 h) [pg/mL] | IFN-α (pg/ml) 28067 (human PBMCs; 24 h) [pg/mL] | IFN-γ (pg/ml) 28067 (human PBMCs; 24 h) [pg/mL] | IFN-α (pg/ml) 28068 (human PBMCs; 24 h) [pg/mL] | IFN-γ (pg/ml) 28068 (human PBMCs; 24 h) [pg/mL] | IFN-α (pg/ml) mean (human PBMCs; 24 h) [pg/mL] | IFN-γ (pg/ml) mean (human PBMCs; 24 h) [pg/mL] | further results |
| --- | --- | --- | --- | --- | --- | --- | --- | --- | --- | --- | --- | --- | --- | --- | --- | --- | --- | --- | --- | --- |
| (5′-TCGTCGA-3′-C3)2-glycerol-C3-5′-TCGTCGA-3′ [Compound C-104] | – | – | – | – | – | – | – | – | – | – | – | – | – | – | – | – | – | – | – | B cell proliferation (FIG. 11), in words (CD19+ B cells; purified human B cells, 5 μg/ml, 96 h): stimulates B cells to proliferate; IFN-α induction (FIG. 10), in words (human PBMCs; PBMCs from 8 donors, 20 μg/ml, 24 h): induces no measurable IFN-α; IFN-α (human PBMCs; Table 24, donor 28234): 16 pg/mL; IFN-γ (human PBMCs; Table 24, donor 28234): 14 pg/mL; IFN-α (human PBMCs; Table 24, donor 28235): 29 pg/mL; IFN-γ (human PBMCs; Table 24, donor 28235): 4 pg/mL; IFN-α (human PBMCs; Table 24, donor 28236): 16 pg/mL; IFN-γ (human PBMCs; Table 24, donor 28236): 87 pg/mL; IFN-α (human PBMCs; Table 24, donor 28237): 16 pg/mL; IFN-γ (human PBMCs; Table 24, donor 28237): 125 pg/mL; IFN-α mean (human PBMCs; [1]): 19 pg/mL; IFN-γ mean (human PBMCs; [1]): 58 pg/mL; IFN-α induction, in words (human PBMCs; used alone): HEG (C-94)>TEG (C-103)>C3 (C-104)=no linker (C-28) |
| 5′-TCGTCG-3′-C12-5′-ACGTTCG-3′-C12-5′-AGATGAT-3′ [Compound C-19] | 858 | 1099 | 926 | 961 | 371 | 403 | 312 | 362 | 662 | 84 | 0 | 1 | 8 | 0 | 1 | 13 | 2 | 4 | 24 | B cell proliferation, in words (CD19+ B cells; 2 μg/ml, 48 h plus 8 h 3H-thymidine pulse): inactive; immunomodulatory activity (IFN-γ / IFN-α secretion), in words (human PBMCs; used alone (no cPLGA)): did not show activity |
| 5′-TCGTCG-3′-C4-5′-ACGTTCG-3′-C4-5′-AGATGAT-3′ [Compound C-17] | 27975 | 30426 | 9895 | 22765 | 17467 | 14890 | 10518 | 14292 | 18529 | 1000 | 21 | 0 | 6 | 22 | 32 | 95 | 459 | 34 | 374 | – |
